# What was measured:
# A. viscosus = assay: Single species growth in media supplemented with arginine (optical density 630 nm); assay type: cell-based, Actinomyces viscosus; details: 10-25 micromol/ml arginine; vs reference control set to 1; OD 630 nm at 24 and 48 hours
# Experimental: (§1) To assess the impact of the amino acid arginine on beneficial oral bacteria and on pathogenic oral bacteria, representative bacterial species were cultured in media supplemented with 5, 10, 20, and 25 micromol/ml of arginine using a 96-well polystyrene microtiter plate. The bacterial cultures were incubated under anaerobic conditions or an environment containing 5% carbon dioxide, monitoring growth at 24 and 48 hours through optical density at a wavelength of 630 nm.
# (§2) *Single species growth and biofilm formation stimulated by arginine in comparison to the reference control which was set to a value of 1 (p<0.05). Cut-off values were set to a factor of 1.2 for growth (upper 5% of all data), and 1.45 for biofilm formation (upper 20% of all data). Aa: Aggregatibacter actinomycetemcomitans, Fn: Fusobacterium nucleatum, Ssob: Streptococcus sobrinus, Avisc: Actinomyces viscosus, Ssal: Streptococcus salivarius, Smitis: Streptococcus mitis, Ssang: Streptococcus sanguinis, Sgord: Streptococcus gordonii, Soralis: Streptococcus oralis.
# [1] = tested on: A. actinomycetemcomitans biofilms; assay: Total biofilm growth in the presence of arginine (crystal violet staining); assay type: cell-based, Aggregatibacter actinomycetemcomitans; details: vs no substrate control
# Excerpt: as §2
# (§3) Total biofilm growth in the presence of arginine was assessed through crystal violet staining. An increase of 1.2-fold or greater over the no substrate control was considered significant as calculated using a Student's t-test (p<0.05).
# pathogenic bacteria = assay: Single species growth in media supplemented with arginine (optical density 630 nm); assay type: cell-based; details: 5, 10, 20, 25 micromol/ml arginine; OD 630 nm at 24 and 48 hours
# Experimental: as §1, §2
# S. sanguinis = assay: as above; assay type: cell-based, Streptococcus sanguinis; details: 10-25 micromol/ml arginine; vs reference control set to 1; OD 630 nm at 24 and 48 hours
# Experimental: as §1, §2
# S. gordonii = assay: as above; assay type: cell-based, Streptococcus gordonii; details: 10-25 micromol/ml arginine; vs reference control set to 1; OD 630 nm at 24 and 48 hours
# Experimental: as §1, §2
# [2] = tested on: pathogenic and beneficial microbes; assay: Total biofilm growth in the presence of arginine (crystal violet staining); assay type: cell-based; details: vs no substrate control, species other than A. actinomycetemcomitans
# Excerpt: as §2, §3
# Fusobacterium nucieatum = assay: Dual species competitive biofilm assay (qPCR); assay type: cell-based, Fusobacterium nucleatum; details: 25 μmol/ml arginine, negative value = reduction of pathogen
# Experimental: (§4) The impact of arginine in a dual-species biofilm was assessed by co-culturing one beneficial bacterial species with on pathogenic microbe in media containing 25 micromol/ml of arginine. The total beneficial-to-pathogen load in the results biofilms were determined via qPCR using DNA probes.
# (§5) Using a competitive biofilm assay, the role of arginine as a selective nutrient was assessed using a dual species biofilm model (Table 2).
# beneficial bacteria = assay: Dual species competitive biofilm assay (qPCR); assay type: cell-based; details: 25 micromol/ml arginine; co-cultured with one pathogenic microbe
# Experimental: as §4, §5
# Streptococcus mutans = assay: Dual species competitive biofilm assay (qPCR); assay type: cell-based; details: 25 μmol/ml arginine, negative value = reduction of pathogen
# Experimental: as §4, §5
# [3] = tested on: Aggregatibacter actinomycetemcomitans; assay: Dual species competitive biofilm assay (qPCR); assay type: cell-based; details: 25 μmol/ml arginine, negative value = reduction of pathogen
# Experimental: as §4, §5
# Streptococcus sobrinus = assay: Dual species competitive biofilm assay (qPCR); assay type: cell-based; details: 25 μmol/ml arginine, negative value = reduction of pathogen
# Experimental: as §4, §5
# Prevotella intermedia = assay: Dual species competitive biofilm assay (qPCR); assay type: cell-based; details: 25 μmol/ml arginine, negative value = reduction of pathogen
# Experimental: as §4, §5
# Porphyromonas gingivalis = assay: Dual species competitive biofilm assay (qPCR); assay type: cell-based; details: 25 μmol/ml arginine, negative value = reduction of pathogen
# Experimental: as §4, §5
# [4] = co-cultured with Actinomyces viscosus
# [5] = co-cultured with Streptoccoccus salivarius
# [6] = co-cultured with Streptococcus gordonii
# [7] = co-cultured with Streptococcus mitis
# [8] = co-cultured with Streptococcus oralis
# [9] = co-cultured with Streptococcus sanguinis
smiles,measurement,setting,value
N=C(N)NCCC[C@H](N)C(=O)O [arginine],fold increase of growth,A. viscosus,1.2-1.3 fold
same,biofilm formation,[1],increase
same,increase of pathogenic bacteria growth,pathogenic bacteria,no significant increase
same,fold increase of growth,S. sanguinis,1.2-1.3 fold
same,fold increase of growth,S. gordonii,1.2-1.3 fold
same,biofilm formation,[2],no significant increase
same,Proportional reduction of pathogenic species in a dual species biofilm post-Arginine treatment,Fusobacterium nucieatum; [4],13.35%
same,Proportional reduction of pathogenic species in a dual species biofilm post-Arginine treatment,Fusobacterium nucieatum; [5],−28.32%
same,Proportional reduction of pathogenic species in a dual species biofilm post-Arginine treatment,Fusobacterium nucieatum; [6],474.12%
same,Proportional reduction of pathogenic species in a dual species biofilm post-Arginine treatment,Fusobacterium nucieatum; [7],209.31%
same,Proportional reduction of pathogenic species in a dual species biofilm post-Arginine treatment,Fusobacterium nucieatum; [8],101.73%
same,Proportional reduction of pathogenic species in a dual species biofilm post-Arginine treatment,Fusobacterium nucieatum; [9],112.11%
same,growth of beneficial bacteria in arginine-cultured dual species biofilms,beneficial bacteria,increase
same,Proportional reduction of pathogenic species in a dual species biofilm post-Arginine treatment,Streptococcus mutans; [4],−23.93%
same,Proportional reduction of pathogenic species in a dual species biofilm post-Arginine treatment,Streptococcus mutans; [5],−15.19%
same,Proportional reduction of pathogenic species in a dual species biofilm post-Arginine treatment,Streptococcus mutans; [6],−87.64%
same,Proportional reduction of pathogenic species in a dual species biofilm post-Arginine treatment,Streptococcus mutans; [7],−0.72%
same,Proportional reduction of pathogenic species in a dual species biofilm post-Arginine treatment,Streptococcus mutans; [8],−3.47%
same,Proportional reduction of pathogenic species in a dual species biofilm post-Arginine treatment,Streptococcus mutans; [9],−19.30%
same,Proportional reduction of pathogenic species in a dual species biofilm post-Arginine treatment,[3]; [4],−25.66%
same,Proportional reduction of pathogenic species in a dual species biofilm post-Arginine treatment,[3]; [5],−35.38%
same,Proportional reduction of pathogenic species in a dual species biofilm post-Arginine treatment,[3]; [6],100.61%
same,Proportional reduction of pathogenic species in a dual species biofilm post-Arginine treatment,[3]; [7],73.94%
same,Proportional reduction of pathogenic species in a dual species biofilm post-Arginine treatment,[3]; [8],268.65%
same,Proportional reduction of pathogenic species in a dual species biofilm post-Arginine treatment,[3]; [9],233.40%
same,Proportional reduction of pathogenic species in a dual species biofilm post-Arginine treatment,Streptococcus sobrinus; [4],−7.87%
same,Proportional reduction of pathogenic species in a dual species biofilm post-Arginine treatment,Streptococcus sobrinus; [5],−1.33%
same,Proportional reduction of pathogenic species in a dual species biofilm post-Arginine treatment,Streptococcus sobrinus; [6],−50.33%
same,Proportional reduction of pathogenic species in a dual species biofilm post-Arginine treatment,Streptococcus sobrinus; [7],49.29%
same,Proportional reduction of pathogenic species in a dual species biofilm post-Arginine treatment,Streptococcus sobrinus; [8],−15.77%
same,Proportional reduction of pathogenic species in a dual species biofilm post-Arginine treatment,Streptococcus sobrinus; [9],−40.73%
same,Proportional reduction of pathogenic species in a dual species biofilm post-Arginine treatment,Prevotella intermedia; [4],−99.99%
same,Proportional reduction of pathogenic species in a dual species biofilm post-Arginine treatment,Prevotella intermedia; [5],81.56%
same,Proportional reduction of pathogenic species in a dual species biofilm post-Arginine treatment,Prevotella intermedia; [6],−98.29%
same,Proportional reduction of pathogenic species in a dual species biofilm post-Arginine treatment,Prevotella intermedia; [7],−52.64%
same,Proportional reduction of pathogenic species in a dual species biofilm post-Arginine treatment,Prevotella intermedia; [8],−73.78%
same,Proportional reduction of pathogenic species in a dual species biofilm post-Arginine treatment,Prevotella intermedia; [9],−99.35%
same,Proportional reduction of pathogenic species in a dual species biofilm post-Arginine treatment,Porphyromonas gingivalis; [4],−97.78%
same,Proportional reduction of pathogenic species in a dual species biofilm post-Arginine treatment,Porphyromonas gingivalis; [5],90.75%
same,Proportional reduction of pathogenic species in a dual species biofilm post-Arginine treatment,Porphyromonas gingivalis; [6],−52.94%
same,Proportional reduction of pathogenic species in a dual species biofilm post-Arginine treatment,Porphyromonas gingivalis; [7],−96.62%
same,Proportional reduction of pathogenic species in a dual species biofilm post-Arginine treatment,Porphyromonas gingivalis; [8],−79.23%
same,Proportional reduction of pathogenic species in a dual species biofilm post-Arginine treatment,Porphyromonas gingivalis; [9],−85.49%
